The values below come from patent publication US20220008425A1, “Pharmaceutical Composition for Treating B-Cell Lymphoma” (FUNDAN UNIVERSITY SHANGHAI CANER CENTER, priority 2018, published 2022).

One series concerns LY8-RCHO cells. Particulars: 48 hours; for cytotoxicity (induction of cell death), inhibitor used alone: inhibitor alone at increasing concentrations; for reversal of resistance to CHO (cytotoxicity of CHO), inhibitor co-treated with CHO: inhibitor at increasing concentrations with CHO. The protocol: (§1) Further, we constructed LY8 and NU-DUL-1 cells resistant to chemotherapeutic drugs. Briefly, LY8-ORI and NU-DUL-1-ORI cells were treated with doxorubicin (Selleck Chemicals, Houston, Tex.) and vincristine (Selleck Chemicals, Houston, Tex.) at a clinical ratio of 50:1.4 by increasing the concentration. […] These cells were then treated with 2 μg/mL of 4-hydroperoxycyclophosphamide (4-HC) (Santa Cruz Biotechnology, Inc., Santa Cruz, Calif.) every 21 days for 3 cycles. The obtained CHO-resistant cells are referred to as LY8-CHO and NU-DUL-1-CHO, respectively. CHO-resistant cells were treated with doxorubicin, vincristine, and 4-HC every 22 days to maintain drug tolerance to CHO. […] To maintain RCHO resistance, LY8-RCHO cells and NU-DUL-1-RCHO cells were treated with 32 μg/mL of rituximab containing 20% (v/v) of NHS every 22 days, followed by treatment with doxorubicin, vincristine, and 4-HC. After 48 hours of treatment with doxorubicin, vincristine and 4-HC, drug resistance to CHO and RCHO was determined by a series of CCK-8 assays.
(§2) Cells were seeded in a 96-well plate at a density of 1×10^4/100 μL/well. Cells were pretreated with IPI-145, abemaciclib, AZD4547, PF-573228, R788, or saracatinib at increasing concentrations with or without CHO for 48 hours prior to performing CytoTox-Glo™ cytotoxicity assay. We performed cytotoxicity assay by using a CytoTox-Glo™ cytotoxicity assay kit (Promega Inc., Madison, Wis.) according to their instructions. Briefly, 50 μL of CytoTox-Glo™ cytotoxicity assay reagent was added to all wells, mixed by orbital shaking, and then incubated for 15 minutes at room temperature. Luminescence of experimental dead cells was detected with a Synergy HT microplate reader (BioTek, Biotek Winooski, Minn.), wherein 50 μL of lysate was added to all wells, mixed and incubated for 15 minutes at room temperature prior to detection of total luminescence. Cytotoxicity was calculated according to the following formula: Cytotoxicity (%)=Experimental dead cell luminescence/Total luminescence×100%.

Another series has as its system NU-DUL-1-RCHO cells. Particulars: 48 hours; for cytotoxicity (induction of cell death), inhibitor used alone: inhibitor alone at increasing concentrations; for reversal of resistance to CHO (cytotoxicity of CHO), inhibitor co-treated with CHO: inhibitor at increasing concentrations with CHO. The method, then:
as §1, §2

Series [1] concerns CD20 and mCRPs (CD46, CD55, CD59) in RCHO-resistant LY8 cells. As to the kind of experiment: FACS analysis of membrane expression of CD46, CD55, CD59 and CD20. In kind it is cell-based, human. The protocol:
(§3) After being washed with PBS, cells were incubated with fluorescein-conjugated antibody for 30 minutes, followed by washing and resuspension of cells in PBS. Flow cytometry analysis was performed on a cytomics FC500 MPL instrument (Beckman Coulter, Inc., Brea, Calif.) and FlowJo software (Ashland, Inc., OR) was used for analysis. Cells were then sorted according to their relative fluorescence intensity by using a MoFlo XDP sorter (Beckman Coulter Inc., Brea, Calif.).
Background: Flow cytometry measures light scatter and fluorescence of single cells or particles in a stream.

Series [2] deals with CD20 and mCRPs (CD46, CD55, CD59) in RCHO-resistant NU-DUL-1 cells. The series is described as above. The format is cell-based, human. The protocol:
as §3

For `COc1cc(Nc2ncc(F)c(Nc3ccc4c(c3)N(COP(=O)(O)O)C(=O)C(C)(C)O4)n2)cc(OC)c1OC` [R788], in the series on LY8-RCHO cells, the “cytotoxicity (induction of cell death), inhibitor used alone” value (“cytotoxicity … inhibitor used alone” for short) was “negligible effect on direct induction of cell death” and the “reversal of resistance to CHO (cytotoxicity of CHO), inhibitor co-treated with CHO” value (from here on “reversal … inhibitor co-treated with CHO”) is on record as “significantly reversed the resistance of RCHO-resistant cells to CHO”. Moreover, in the series on NU-DUL-1-RCHO cells, the “cytotoxicity … inhibitor used alone” value is “negligible effect on direct induction of cell death” and the “reversal … inhibitor co-treated with CHO” value is “significantly reversed the resistance of RCHO-resistant cells to CHO”.
`NC1(c2ccc(-c3nc4ccn5c(=O)[nH]nc5c4cc3-c3ccccc3)cc2)CCC1` [MK-2206]: in series [1], the “membrane expression of CD20” value was “significantly reduced” and the “membrane expression of the other three mCRPs (CD46, CD55, CD59)” value is recorded as “the other three mCRPs did not”. For the same compound, in series [2], the “membrane expression of CD20” value is on record as “significantly reduced” and the “membrane expression of the other three mCRPs (CD46, CD55, CD59)” value is “the other three mCRPs did not”.
For the compound `CN1CCN(CCOc2cc(OC3CCOCC3)c3c(Nc4c(Cl)ccc5c4OCO5)ncnc3c2)CC1` [saracatinib], in the series with LY8-RCHO cells, the “cytotoxicity … inhibitor used alone” value is given as “negligible effect on direct induction of cell death” and the “reversal … inhibitor co-treated with CHO” value is reported as “significantly reversed resistance of RCHO-resistant cells to CHO”. In the series on NU-DUL-1-RCHO cells, the “cytotoxicity … inhibitor used alone” value is “negligible effect on direct induction of cell death” and the “reversal … inhibitor co-treated with CHO” value is “significantly reversed resistance of RCHO-resistant cells to CHO”.
Regarding `CS(=O)(=O)c1cccc(CNc2nc(Nc3ccc4c(c3)CCC(=O)N4)ncc2C(F)(F)F)c1` [PF-573228], in the series with LY8-RCHO cells, the “cytotoxicity … inhibitor used alone” value was “negligible effect on direct induction of cell death” and the “reversal … inhibitor co-treated with CHO” value is “significantly reversed resistance of RCHO-resistant cells to CHO”.
